Assay results as given in patent publication US8518957B2, “Methanocarba adenosine derivatives, pharmaceutical compositions, and method of reducing intraocular pressure” (The United States of America, as represented by the …, priority 2009, dated 2013).
Like-named read-outs stand apart in the source and are kept apart here.

Tests used:
human A1 AR = biological target: T1, human A1 AR (Homo sapiens, UniProt P30542); assay: Radioligand binding at human A1 AR ([3H]NECA, membranes of CHO cells); settings: for Ki: Example 7, agonist radioligand [3H]45, read-out: AR Affinity Ki, nM, A1
T1 construct: expressed in transfected cells
T1 sequence (P30542 1-326): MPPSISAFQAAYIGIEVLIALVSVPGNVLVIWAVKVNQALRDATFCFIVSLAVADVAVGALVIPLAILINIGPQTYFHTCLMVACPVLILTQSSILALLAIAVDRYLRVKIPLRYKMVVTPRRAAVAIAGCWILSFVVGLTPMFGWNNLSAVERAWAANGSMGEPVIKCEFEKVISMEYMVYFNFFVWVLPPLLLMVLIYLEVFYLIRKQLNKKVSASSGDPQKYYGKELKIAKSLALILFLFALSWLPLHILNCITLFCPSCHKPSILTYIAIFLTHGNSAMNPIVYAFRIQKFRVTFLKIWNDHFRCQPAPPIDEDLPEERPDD
Experimental: (§1) [^3H](2-[p-(2-Carboxyethyl)phenyl-ethylamino]-5′-N-ethylcarboxamido-adenosine) (37, [^3H]CGS21680, 40.5 Ci/mmol) and [^125I]N^6-(4-amino-3-iodobenzyl)adenosine-5′-N-methyluronamide (38, [^125I]I-AB-MECA, 2200 Ci/mmol) were purchased from Perkin-Elmer Life and Analytical Science (Boston, Mass.). Test compounds were prepared as 5 mM stock solutions in DMSO and stored frozen at −20° C.
(§2) CHO cells stably expressing the recombinant hA1 and hA3Rs, and HEK-293 cells stably expressing the hA2AAR were cultured in Dulbecco's modified Eagle medium (DMEM) and F12 (1:1) supplemented with 10% fetal bovine serum, 100 units/mL penicillin, 100 μg/mL streptomycin, and […] glutamine. In addition, 800 μg/mL geneticin was added to the A2A media, while 500 μg/mL hygromycin was added to the A1 and A3 media. After harvesting, cells were homogenized and suspended in PBS. Cells were then centrifuged at 240 g for 5 min, and the pellet was resuspended in 50 mM Tris-HCl buffer (pH 7.5) containing 10 mM MgCl2. The suspension was homogenized and was then ultra-centrifuged at 14,330 g for 30 min at 4° C. The resultant pellets were resuspended in Tris buffer, incubated with adenosine deaminase (3 units/mL) for 30 min at 37° C. The suspension was homogenized with an electric homogenizer for 10 sec, pipetted into 1 mL vials and then stored at −80° C. until the binding experiments were conducted. The protein concentration was measured using the BCA Protein Assay Kit from Pierce Biotechnology, Inc. (Rockford, Ill.).
(§3) Into each tube in the binding assay was added 50 μL of increasing concentrations of the test ligand in Tris-HCl buffer (50 mM, pH 7.5) containing 10 mM MgCl2, 50 μl, of the appropriate agonist radioligand, and finally 100 μL of membrane suspension. For the A1AR (22 μg of protein/tube) the radioligand used was [^3H]36 (final concentration of 3.5 nM). For the A2AAR (20 μg/tube) the radioligand used was [^3H]37 (10 nM). For the A3AR (21 μg/tube) the radioligand used was [^125I]38 (0.34 nM). Nonspecific binding was determined using a final concentration of 10 μM unlabeled 36 diluted with the buffer. The mixtures were incubated at 25° C. for 60 min in a shaking water bath. Binding reactions were terminated by filtration through Brandel GF/B filters under a reduced pressure using a M-24 cell harvester (Brandel, Gaithersburg, Md.). Filters were washed three times with 3 mL of 50 mM ice-cold Tris-HCl buffer (pH 7.5). Filters for A1 and A2AAR binding were placed in scintillation vials containing 5 mL of Hydrofluor scintillation buffer and counted using a Perkin Elmer Liquid Scintillation Analyzer (Tri-Carb 2810TR). Filters for A3AR binding were counted using a Packard Cobra II γ-counter. The Ki values were determined using GraphPad Prism for all assays.
(§4) [^3H](2-[p-(2-carboxyethyl)phenyl-ethylamino]-5′-N-ethylcarboxamido-adenosine) ([^3H]CGS21680, 40.5 Ci/mmol) and [^125I]N^6-(4-amino-3-iodobenzyl)adenosine-5′-N-methyluronamide ([^125I]I-AB-MECA, 2200 Ci/mmol) were purchased from PerkinElmer. Test compounds were prepared as 5-mM stock solutions in DMSO and stored frozen at −20° C.
(§5) Chinese hamster ovary (CHO) cells were generated by stably expressing the recombinant hA1 and hA3 and human embryonic kidney (HEK) 293 cells stably expressing the hA2AAR in DMEM and F12 (1:1) supplemented with 10% fetal bovine serum, 100 units/mL penicillin, 100 μg/mL streptomycin, and 2 μmol/mL glutamine. 800 μg/mL Geneticin were added to the A2A media and 500 μg/mL hygromycin to the A1 and A3 media. After harvesting the cells, they were homogenized with an electric homogenizer for 10 sec, pipetted them into 1-mL vials, and then stored them at −80° C. until the binding experiments were conducted. The protein concentration was measured with a BCA Protein Assay Kit from Pierce Biotechnology (Rockford, Ill.). […]

hA2AAR = biological target: T2, hA2AAR (Homo sapiens, UniProt P29274); assay: Radioligand binding at human A2A AR ([3H]CGS21680, membranes of HEK-293 cells); settings: for Ki: Example 7, agonist radioligand [3H]46, HEK293, read-out: AR Affinity Ki, nM, A2A
T2 construct: expressed in transfected cells
Experimental: as §1, §2, §3, §4, §5

human A3AR = biological target: T3, human A3AR (Homo sapiens, UniProt P0DMS8); assay: Radioligand binding at human A3 AR ([125I]I-AB-MECA, membranes of CHO cells)
T3 construct: expressed in transfected cells
T3 sequence (P0DMS8 1-318): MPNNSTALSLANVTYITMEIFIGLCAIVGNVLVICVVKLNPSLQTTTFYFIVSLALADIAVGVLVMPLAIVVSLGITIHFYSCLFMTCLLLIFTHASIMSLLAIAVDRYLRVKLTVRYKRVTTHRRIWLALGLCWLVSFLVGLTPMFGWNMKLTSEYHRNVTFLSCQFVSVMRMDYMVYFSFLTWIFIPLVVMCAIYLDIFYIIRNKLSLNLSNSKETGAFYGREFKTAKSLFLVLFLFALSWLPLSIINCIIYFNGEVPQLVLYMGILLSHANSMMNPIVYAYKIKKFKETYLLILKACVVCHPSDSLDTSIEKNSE
Experimental: Test compounds were prepared as 5 mM stock solutions in DMSO and stored frozen at −20° C.
as §2
as §3, with “For the A1AR (22 μg of protein/tube) the radioligand used was [^3H]36 (final concentration of 3.5 nM).” left out, “For the A3AR (21 μg/tube) the radioligand used was [^125I]38 (0.34 nM).” left out, “Filters for A1 and A2AAR binding were placed in scintillation vials containing 5 mL of Hydrofluor scintillation buffer and counted using a Perkin Elmer Liquid Scintillation Analyzer (Tri-Carb 2810TR).” left out
Test compounds were prepared as 5-mM stock solutions in DMSO and stored frozen at −20° C.
Chinese hamster ovary (CHO) cells were generated by stably expressing the recombinant hA1 and hA3 and human embryonic kidney (HEK) 293 cells stably expressing the hA2AAR in DMEM and F12 (1:1) supplemented with 10% fetal bovine serum, 100 units/mL penicillin, 100 μg/mL streptomycin, and 2 μmol/mL glutamine. 800 μg/mL Geneticin were added to the A2A media and 500 μg/mL hygromycin to the A1 and A3 media. After harvesting the cells, they were homogenized with an electric homogenizer for 10 sec, pipetted them into 1-mL vials, and then stored them at −80° C. until the binding experiments were conducted. The protein concentration was measured with a BCA Protein Assay Kit from Pierce Biotechnology (Rockford, Ill.).
Each tube in the binding assay contained 50 μL of increasing concentrations of the test ligand in Tris-HCl buffer (50 mM, pH 7.5) containing 10 mM MgCl2, 50 μL of the appropriate agonist radioligand, and 100 μL membrane suspension, added sequentially. […] For the A2AAR (20 μg/tube), the radioligand [^3H]CGS21680 was used (−10 nM). […] The mixtures were incubated at 25° C. for 60 min in a shaking water bath. The binding reactions were terminated by filtration through Brandel GF/B filters under a reduced pressure with a M-24 cell harvester (Brandel, Gaithersburg, Md.). Filters were washed three times with 3 mL 50-mM ice-cold Tris-HCl buffer (pH 7.5). […] The filters were counted for A3AR binding with a Packard Cobra II γ-counter (PerkinElmer). The Ki values were determined with GraphPad Prism for all assays.

[1] = Example 7, agonist radioligand [125I]47, read-out: AR Affinity Ki, nM, A3

T2 sequence (P29274 whole entry): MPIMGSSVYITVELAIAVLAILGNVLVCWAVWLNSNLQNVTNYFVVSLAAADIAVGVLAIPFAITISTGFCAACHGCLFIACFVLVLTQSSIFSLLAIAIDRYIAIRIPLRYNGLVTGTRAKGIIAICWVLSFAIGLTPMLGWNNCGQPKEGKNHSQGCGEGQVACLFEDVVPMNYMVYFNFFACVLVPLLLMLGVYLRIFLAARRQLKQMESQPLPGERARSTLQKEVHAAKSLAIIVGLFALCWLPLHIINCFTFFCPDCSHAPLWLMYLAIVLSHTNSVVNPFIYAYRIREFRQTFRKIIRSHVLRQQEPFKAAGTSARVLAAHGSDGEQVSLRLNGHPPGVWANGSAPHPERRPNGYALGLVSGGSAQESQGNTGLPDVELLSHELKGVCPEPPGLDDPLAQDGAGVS

| Structure (SMILES) | Ki (human A1 AR) [nM] | Ki (hA2AAR) [nM] | Ki (human A3AR; [1]) [nM] | other results |
| --- | --- | --- | --- | --- |
| CNC(=O)[C@@]12C[C@@H]1[C@@H](n1cnc3c(NCc4cccc(Cl)c4)nc(C#CCCCc4cn(-c5ccc(F)c([N+](=O)[O-])c5)nn4)nc31)[C@H](O)[C@@H]2O [Compound 10, (1S,2R,3S,4R,5S)-4′-(6-(3-Chlorobenzylamino)-2-(6-(1-(4-fluoro-3-nitrophenyl)-1H-1,2,3-triazol-4-yl)pent-1-ynyl)-9H-purin-9-yl)-2′,3′-dihydroxybicyclo[3.1.0]hexane-1′-carboxylic acid N-methylamide] |  |  |  | % inhibition, A1 (human A1 AR; inhibition of radioligand binding at 10 μM, [3H]36, CHO cells): (10 ± 3%); % inhibition, A2A (hA2AAR; inhibition of radioligand binding at 10 μM, [3H]37, HEK293 cells): (39 ± 4%); Ki (human A3AR; [125I]38, CHO cells, read-out: Affinity (Ki, nM), A3): 26 ± 8.2 nM |
| CNC(=O)[C@@]12C[C@@H]1[C@@H](n1cnc3c(NCc4cccc(I)c4)nc(Cl)nc31)[C@H](O)[C@@H]2O [Compound 127, reference compound] | 136 ± 22 | 784 ± 97 |  |  |
| C#CCCCC#Cc1cccc(CNc2nc(Cl)nc3c2ncn3[C@H]2[C@H](O)[C@H](O)[C@]3(C(=O)NC)C[C@H]23)c1 [Compound 200, (1S,2R,3S,4R,5S)-4-[2-Chloro-6-{3-(1,6-heptadiynylbenzylamino)}-9H-purin—9-yl]-2,3-dihydroxybicyclo[3.1.0]hexane-1-carboxylic acid N-methylamide] | 104 ± 24 | 4950 ± 960 | 8.1 ± 3.1 |  |
| C#CCCCCC#Cc1cccc(CNc2nc(Cl)nc3c2ncn3[C@H]2[C@H](O)[C@H](O)[C@]3(C(=O)NC)C[C@H]23)c1 [Compound 201, (1S,2R,3S,4R,5S)-4-[2-Chloro-6-{3-(1,7-octadiynyl)benzylamino}-9H-purin-9-yl]-2,3-dihydroxybicyclo[3.1.0]hexane-1-carboxylic acid N-methylamide] | 1490 ± 230 |  | 113 ± 24 | inhibition at 10 µM (hA2AAR): 19.7% |
| C#CCCCCCC#Cc1cccc(CNc2nc(Cl)nc3c2ncn3[C@H]2[C@H](O)[C@H](O)[C@]3(C(=O)NC)C[C@H]23)c1 [Compound 202, (1S,2R,3S,4R,5S)-4-[2-Chloro-6-{3-(1,8-nonadiynyl)}-9H-purin-9-yl]-2,3-dihydroxybicyclo[3.1.0]hexane-1-carboxylic acid N-methylamide] |  |  | 87.2 ± 49 | inhibition at 10 µM (human A1 AR): 47.7%; inhibition at 10 µM (hA2AAR): 7% |
| CNC(=O)[C@@]12C[C@@H]1[C@@H](n1cnc3c(NCc4cccc(C#CCCCc5cn(-c6ccc(F)c([N+](=O)[O-])c6)nn5)c4)nc(Cl)nc31)[C@H](O)[C@@H]2O [Compound 203, (1S,2R,3S,4R,5S)-4-(2-Chloro-6-(3-(5-(1-(4-fluoro-3-nitrophenyl)-1H-1,2,3-triazol-4-yl)pent-1-ynyl)benzylamino)-9H-purin-9-yl)-2,3-dihydroxybicyclo[3.1.0]hexane-1-carboxylic acid-N-methylamide] | 37.4 ± 12 | 1960 ± 50 | 3.2 ± 1.1 |  |
| CNC(=O)[C@@]12C[C@@H]1[C@@H](n1cnc3c(NCc4cccc(C#CCCCc5cn(-c6ccc(F)c(N)c6)nn5)c4)nc(Cl)nc31)[C@H](O)[C@@H]2O [Compound 207, (1S,2R,3S,4R,5S)-4-(2-Chloro-6-(3-(5-(1-(4-fluoro-3-amino-phenyl)-1H-1,2,3-triazol-4-yl)pent-1-ynyl)benzylamino)-9H-purin-9-yl)-2,3-dihydroxybicyclo[3.1.0]hexane-1-carboxylic acid-N-methylamide] |  |  | 14.3 ± 2.3 |  |
| CNC(=O)[C@@]12C[C@@H]1[C@@H](n1cnc3c(NCc4cccc(C#CCCCCCc5cn(-c6ccc(F)c(N)c6)nn5)c4)nc(Cl)nc31)[C@H](O)[C@@H]2O [Compound 208, (1S,2R,3S,4R,5S)-4-(2-Chloro-6-(3-(7-(1-(4-fluoro-3-amino-phenyl)-1H-1,2,3-triazol-4-yl)hept-1-ynyl)benzylamino)-9H-purin-9-yl)-2,3-dihydroxybicyclo[3.1.0]hexane-1-carboxylic acid-N-methylamide] |  |  | 47.6 ± 11.3 |  |
| C#CCNc1nc(Cl)nc2c1ncn2[C@H]1[C@H](O)[C@H](O)[C@]2(C(=O)NC)C[C@H]12 [Compound 218, (1S,2R,3S,4R,5S)-4-(2-Chloro-6-(prop-2-ynylamino)-9H-purin-9-yl)-2,3-dihydroxy-N-methylbicyclo[3.1.0]hexane-1-carboxamide] |  |  | 1.9 |  |
